The text below walks through data of ChEMBL document CHEMBL1201862, “PubChem BioAssay data set” (2004).

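These data come from cells grown in 96-well plates and exposed to compound for 48 hours at five concentrations. The concentration for 50% growth inhibition is given as GI50.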 Active and inactive are the calls of the source. Cut-off read from the data, not from the text of the source: active = GI50 up to about 1.1 µM and inactive = higher.

Some test systems named below: UACC-257; SW-620; MDA-N; SK-MEL-2; OVCAR-4; A549; SNB-19; SNB-75; MOLT-4; NCI/ADR-RES; BT-549; HOP-92; OVCAR-3; TK-10; OVCAR-8; HT-29; EKVX; NCI-H23; 786-0; RPMI-8226.
What all share (experiment): NCI tumour cell line growth inhibition, 48 h

Consider `CC1(C)C2C=C(CCN3CCOCC3)CC1C2` (stereo not given), for which the GI50 with UACC-257, in the experiment on SW-620, in the experiment on MDA-N, with SK-MEL-2, with OVCAR-4 and in the experiment with A549 was > 100 µM (inactive) throughout. Moreover, the GI50 with SNB-19 is > 100 µM (inactive); in the experiment on SNB-75, 71.3 µM (inactive); in the experiment on MOLT-4, > 100 µM (inactive); in the experiment on NCI/ADR-RES it was > 100 µM (inactive); in the experiment on BT-549, > 100 µM (inactive); in the experiment with HOP-92, 15.3 µM (inactive). Moreover, the GI50 in the experiment on OVCAR-3, in the experiment on TK-10, with OVCAR-8, in the experiment with HT-29, with EKVX and in the experiment with NCI-H23 was > 100 µM (inactive) in each case. Also, the GI50 in the experiment with 786-0 and in the experiment with RPMI-8226 was > 100 µM (inactive) in each case.
On to `CC(=NNC(=S)Nc1ccccc1)c1cccc(C(C)=NNC(=S)Nc2ccccc2)n1`, for which the GI50 in the experiment with UACC-257 is 8.83 µM (inactive); with SW-620, 3.66 µM (inactive); with MDA-N, 14.1 µM (inactive); in the experiment with SK-MEL-2, 41.1 µM (inactive); in the experiment on OVCAR-4, 3.66 µM (inactive); in the experiment on A549, 3.94 µM (inactive). Further, the GI50 in the experiment with SNB-19 is 19.3 µM (inactive); in the experiment on SNB-75 it was 10.8 µM (inactive); with MOLT-4 it was 2.29 µM (inactive); with NCI/ADR-RES it was 1.61 µM (inactive); in the experiment with BT-549, 12.2 µM (inactive); in the experiment on HOP-92, 2.25 µM (inactive). In addition, the GI50 with OVCAR-3 is 1.38 µM (inactive); in the experiment on TK-10, 4.24 µM (inactive); in the experiment with OVCAR-8 it was 0.968 µM (active); in the experiment on HT-29, 2.34 µM (inactive); in the experiment on EKVX it was 6.98 µM (inactive); with NCI-H23, 7.46 µM (inactive). For the same molecule, the GI50 in the experiment on 786-0 is 1.75 µM (inactive); in the experiment with RPMI-8226, 2.83 µM (inactive).
Take `O=C(O)CCc1nc2ccccc2[nH]1` [PROCODAZOLE]: the GI50 in the experiment with UACC-257, in the experiment on SW-620, in the experiment with MDA-N, with SK-MEL-2, with OVCAR-4 and in the experiment on A549 was > 100 µM (inactive) in each case. The GI50 in the experiment on SNB-19, in the experiment with SNB-75, with MOLT-4, in the experiment with NCI/ADR-RES, in the experiment with BT-549 and in the experiment on HOP-92 was > 100 µM (inactive) in each case. Further, the GI50 with OVCAR-3, in the experiment on TK-10, in the experiment with OVCAR-8, in the experiment with HT-29, with EKVX and in the experiment on NCI-H23 was > 100 µM (inactive) throughout. Also, the GI50 in the experiment with 786-0 and with RPMI-8226 was > 100 µM (inactive) each time.
For `COc1ncc(C#CC(=O)c2ccccc2)c(OC)n1`, the GI50 with UACC-257 is 5.64 µM (inactive); with SW-620, 1.63 µM (inactive); in the experiment on MDA-N, 1.71 µM (inactive); in the experiment on SK-MEL-2, 5.07 µM (inactive); with OVCAR-4, 4.7 µM (inactive); in the experiment on A549, 11.6 µM (inactive). In addition, the GI50 was 15.8 µM (inactive) in the experiment with SNB-19; 5.2 µM (inactive) in the experiment with SNB-75; 0.679 µM (active) in the experiment on MOLT-4; 2.72 µM (inactive) with NCI/ADR-RES; 2.17 µM (inactive) in the experiment on BT-549; 2.15 µM (inactive) in the experiment on HOP-92. Besides, the GI50 is 5.11 µM (inactive) in the experiment with OVCAR-3; 1.67 µM (inactive) with TK-10; 2.78 µM (inactive) in the experiment on OVCAR-8; 1.88 µM (inactive) with HT-29; 3.51 µM (inactive) with EKVX; 4.33 µM (inactive) in the experiment with NCI-H23. Moreover, the GI50 in the experiment with 786-0 was 2.04 µM (inactive); with RPMI-8226, 2.33 µM (inactive).
As to `O=C(c1ccc(Cl)c(Cl)c1)N(Cc1cccnc1)C(=S)N(Cc1cccnc1)C(=O)c1ccc(Cl)c(Cl)c1`, the GI50 is 24.9 µM (inactive) in the experiment with UACC-257; 29.2 µM (inactive) in the experiment on SW-620; 23.9 µM (inactive) in the experiment on MDA-N; 25.1 µM (inactive) in the experiment on SK-MEL-2; 25.8 µM (inactive) in the experiment on OVCAR-4; > 100 µM (inactive) with A549. Also, the GI50 was 27.9 µM (inactive) in the experiment with SNB-19; 38.4 µM (inactive) in the experiment with SNB-75; 37.3 µM (inactive) in the experiment with MOLT-4; 31.3 µM (inactive) in the experiment with NCI/ADR-RES; 22.9 µM (inactive) in the experiment with BT-549; 36.1 µM (inactive) with HOP-92. The GI50 with OVCAR-3 is 25.5 µM (inactive); in the experiment with TK-10, 29.9 µM (inactive); in the experiment on OVCAR-8 it was 30.5 µM (inactive); in the experiment with HT-29, 24 µM (inactive); in the experiment on EKVX, 40.6 µM (inactive); in the experiment with NCI-H23, 37.8 µM (inactive). The GI50 in the experiment with 786-0 is 20.4 µM (inactive); in the experiment on RPMI-8226, 5.5 µM (inactive).
On to `CCn1sc2ccccc2c1=O`, for which the GI50 is 14.8 µM (inactive) in the experiment on UACC-257; 6.35 µM (inactive) in the experiment with SW-620; 4.05 µM (inactive) in the experiment with MDA-N; 21.7 µM (inactive) in the experiment on SK-MEL-2; 7.1 µM (inactive) in the experiment on OVCAR-4; 16.1 µM (inactive) with A549. The GI50 in the experiment with SNB-19 was 11.3 µM (inactive); with SNB-75 it was 13.7 µM (inactive); with MOLT-4, 3.78 µM (inactive); with NCI/ADR-RES it was 18.2 µM (inactive); with BT-549, 11.1 µM (inactive); in the experiment with HOP-92 it was 10.1 µM (inactive). In addition, the GI50 in the experiment with OVCAR-3 is 12.9 µM (inactive); in the experiment with TK-10, 16.5 µM (inactive); with OVCAR-8 it was 9.12 µM (inactive); in the experiment with HT-29, 14.4 µM (inactive); with EKVX it was 17.1 µM (inactive); in the experiment on NCI-H23, 13 µM (inactive). Further, the GI50 with 786-0 is 2.34 µM (inactive); in the experiment with RPMI-8226, 4.23 µM (inactive).
